The values below come from patent US6015560A, “Antibody recognizing endothelial cell ligand for leukocyte CR3” (priority 1995, dated 2000).

Bounds are passed on as bounds.

In data set [1] the test system is human umbilical vein endothelial cells. The data set can be described thus: Adherence of neutrophils to cultured (TNF-stimulated) endothelial cells. The data set is classed as cell-based. The following applies: for neutrophil adherence blocking activity (in words): compared with FHA Ca. Here is the method: Human umbilical vein endothelial cells (HUVEC, first passage, Clonetics, San Diego, Calif.) were subcultured at confluence into Terasaki tissue culture wells. After 24 hours, confluent monolayers were used for adherence assays. Monolayers were stimulated with 10 ng/ml TNF alpha (Boehringer Mannheim, Indianapolis, Ind.) at 37° C. for four hours. 30 μl of human neutrophils (10^6 /ml) were labeled with fluorescein by the method of Lo et al. (1991), J. Exp. Med. 173 1493-1500, and preincubated for 15 minutes at 37° C. with 20 μl of peptides (0.5 mM in HAP) or HAP (phosphate buffered saline containing 0.5 mg/ml human serum albumin, 3 mM glucose, and 0.3 U/ml aprotinin) as a control buffer. For some experiments, endothelial cells were pretreated from 10 minutes with Factor X or antibodies against Factor X receptor (EPR-1; Altieri et al. (1990), J. Immunol. 145, 246-253) 12H1 and 9D4 (obtained from Dr. D. Altieri, Scripps Research Institute, Lajolla, Calif.) and then washed. Neutrophils were allowed to adhere to the monolayer for 15 mins. at 37° C. and unbound cells were removed by submersion of the plate in PBS buffer. The number of adherent neutrophils was counted in a 40× microscope field and expressed as a percentage of adherence in control wells with neutrophils treated with HAP buffer alone. The mAb IB4 against CD18 (50 μg/ml; Merck Inc., Rahway, N.J.) served as a positive control.
(§1) The procedures for determining the neutrophil adherence to cultured endothelial cells and the transendothelial migration of neutrophils were identical with those of Example 9. Control values were the same as those shown in Example 9.

In a further data set the target is T1, CD11b/CD18 (Homo sapiens, UniProt P05107+P11215).
T1 construct: C3bi-erythrocyte rosetting after spreading on peptide-coated wells
The data set can be described thus: Downmodulation of CD11b/CD18 on macrophages (binding of C3bi-coated erythrocytes). It is filed as cell-based. The following applies: 0.5 mM. Here is the method:
Human monocytes were purified from buffy coats on Percoll gradients and cultured in 12.5% human serum in Teflon beakers. Macrophages were harvested from Teflon beakers after 6-8 days and suspended in HAP buffer. Terasaki wells were coated with 5 μl of peptides (0.5 mM) or anti-CD18 mAb IB4 (50 μg/ml). Control wells were coated with HAP. After 2 hours of incubation at RT, 5 μl of macrophages (5×10^5 /ml HAP) were added and allowed to spread for 45 mins. at 37° C. […] IgM-coated erythrocytes in buffer served as negative control. After washing, the number of erythrocytes bound per 100 leukocytes (adherence index) was quantitated visually under an inverted microscope.

A further data set deals with blood brain barrier. The data set can be described thus: Rabbit meningitis model: CSF protein and lactate (blood brain barrier permeability). It is filed as in vivo. Here is the method: (§2) The rabbit model was performed according to an established protocol. Specific pathogen free, New Zealand white rabbits (2 kg; Hare Marland, Nutley, N.J.) were anesthetized with valium (2.5 mg/kg, subcutaneously, Hoffman-LaRoche, Nutley, N.J.), ketamine (35 mg/kg, intramuscularly, Aveco, Fort Dodge, Iowa) and xylazine (5 mg/kg, intramuscularly, Miles Laboratories, Shawnee, Kans.) and a helmet of dental acrylic was affixed to the calvarium. Twenty four hours later, the rabbits were anesthetized with ethyl carbamate (1.75 g/kg; Aldrich Chemical Co., Milwaukee, Wis.) and pentobarbital (15 mg/kg; Abbott Laboratories, Abbott Park, Ill.) and placed in a stereotaxic frame. A spinal needle was introduced into the cisterna magna and 300 μl of CSF was withdrawn. The animals were challenged intracisternally with 10^8 heat killed, unencapsulated pneumococcus strain R6 introduced in 200 μl of saline (time 0). One hour later, animals were treated with peptides dissolved in 1 ml of saline by intravenous injection into the right marginal ear vein. The concentration of FHA was 0.1 μM and that of the FHA Ia, Factor X II, and scrambled FHA II peptides was 10 μM. For the acetyl-FHA II, acetyl/amide-FHA II, dimer of FHA II and trimer of FHA II peptides, the concentration was 10^-3 μM. The concentration of FHA II is given in the results section. Samples of CSF were withdrawn at hourly intervals after pneumococcal inoculation and leukocyte density was measured using a cell counter (Coulter Electronics Inc., Hialeah, Fla.). CSF samples were centrifuged at 10,000×g for 5 minutes and the supernatant was stored at -70° C. until assayed for protein concentration using the bicinchoninic acid method (BCA Kit, Pierce Chemical Co., Rockford, Ill.) and for lactate concentration (Lactate Detection Kit, Sigma, St. Louis, Mo.). Statistically significant differences between treatments were determined by a one way analysis of variance test.
Loss of barrier function of the cerebral capillary endothelium during inflammation is reflected by an influx of serum proteins into the CSF. […] To examine if the peptides were able to ameliorate these measures of cerebral injury, CSF protein and lactate concentrations were measured hourly in peptide-treated and control animals (Table 10).
Leukocyte migration into the CSF in bacterial meningitis is associated with loss of barrier function of the cerebral capillary endothelium, resulting in influx of serum proteins into the CSF. To determine whether FHA peptides were able to prevent this leukocyte-dependent injury, protein concentrations in the CSF were measured throughout the course of inflammation in peptide-treated and control animals.

In data set [2] the test system is leukocytes in CSF. The data set can be described thus: Rat meningitis model (LOS): CSF leukocytosis. The settings on record: 4 hours. The data set is classed as in vivo. Here is the method:
The experiments were performed according to established protocols (Wispelway et al., 1988, J. Clin. Invest., 82: 1339-1346). Purified Haemophilus influenzae type b strain DL42 lipooligosaccharide (LOS) was prepared for inoculation by sonication for 30 minutes, dilution to the desired concentration (20 ng/50 μl) in normal saline or PBS, and sonication for an additional 15 to 30 minutes just prior to use.
(§3) Briefly, anesthetized female Wistar rats were placed under a micromanipulator and inoculated intracisternally with a 25 gauge needle. After removal of 50 μl of CSF (without visible blood contamination), rats were inoculated intracisternally with 50 μl (20 ng) of LOS using a 1 ml syringe with a 25 gauge needle. Ten to fifteen minutes after inoculation with LOS, the rats were treated by intravenous administration of the test substance: a solution of an FHA peptide in PBS, a solution of a control peptide in PBS, or an equal volume of PBS alone.
(§4) Three hours after LOS inoculation, 5 μCi of ^125 I-radiolabelled albumin in 50 μl normal saline was administered intravenously. One hour later, CSF was collected via intracisternal puncture and blood samples were collected via intracardiac puncture. CSF leukocytosis was determined by manually counting white blood cells using a hemacytometer, and blood-brain barrier permeability was determined as the percent of radioactivity in whole blood that was present in the CSF. Blood samples were obtained immediately prior to inoculation, immediately prior to treatment, and at 4 hours post-inoculation for determination of peripheral white blood cell concentrations.

A further data set concerns neutrophils. The data set can be described thus: Transendothelial migration of neutrophils. It is filed as cell-based, human. The following applies: peptides 0.01 mM. Here is the method:
Transendothelial migration of neutrophils was studied based on a method described by Muller et al. (1992), J. Exp. Med. 176: 819-828. Briefly, human neutrophils suspended in ice-cold Hanks balanced salt solution (HBSS) containing Ca^++ and Mg^++ (Sigma) were fluoresceinated by adding 3.3 μl/ml 5-(and 6-)carboxyfluorescein diacetate, succinimidyl ester (CFSE, Molecular Probes Inc., Oreg.). After incubation for 30 mins. on ice, neutrophils were washed twice in cold HBSS with Ca^++ and Mg^++ and resuspended in cold Medium 199 (M199, Sigma) to a final concentration of 10^6 /ml. Human umbilical vein endothelial cells were subcultured at confluence into 96-well tissue culture plates (Becton Dickinson Labware, Lincoln Park, N.J.) that were coated with hydrated collagen gel (Vitrogen; Collagen Corporation, Palo Alto, Calif.) and fibronectin. Endothelial cells were stimulated with 10 ng/ml TNF-alpha for 4 hours and washed three times with warm M199. Neutrophils (10^6 /ml) were preincubated with 0.01 mM of peptides or with 1 μM of native FHA in M199 for 5 mins. on ice before they were added in 100 μl aliquots to the endothelial cells. For positive control, neutrophils were pre-incubated with 25 μg/ml anti-CD18 mAb IB4. For negative control, neutrophils were treated with 25 μg/ml mAb W6/32 against HLA class I antigen (Dako, Carpinteria, Calif.). The cells were incubated for 1 hour at 37° C., 5% CO2. To terminate transmigration, the supernatant fluid was aspirated and the wells were filled with warm 1 mM EGTA (Sigma) in HBSS without Ca and Mg. The plates were covered with plate sealers (Dynatech, Alexandria, Va.) and centrifuged in an inverted position at 250 g for 3 mins. at room temperature. To remove residual non-transmigrated neutrophils from the endothelial cells, monolayers were washed twice with 200 μl of warm Hanks solution without Ca and Mg. Fluorescence was quantitated using a fluorescence counter (Millipore Cytofluor™ 2300). The percentage of transmigrated neutrophils was determined by comparing the amount of fluorescence of test wells with that measured in collagen- and fibronectin-coated wells without endothelial cells. […] Percent inhibition of transendothelial migration of neutrophils was calculated by comparing the number of transmigrated cells in wells containing neutrophils treated with peptide to neutrophils treated with M199 alone and arbitrarily set at 100% transendothelial migration (TEM).
as §1

Data set [3] concerns leukocytes in CSF. Briefly: Rabbit meningitis model: leukocyte migration into CSF. It is filed as in vivo. Here is the method: as §2
The anti-inflammatory effects of the administered peptides were assessed in the rabbit model for meningitis by the procedures described in Example 10. The animals received 1 ml of 1 uM peptide intravenously. In a slight departure from the protocol described in Example 10, samples of blood were drawn from the left marginal ear vein 30 minutes after the administration of the peptides to determine peripheral leukocyte concentrations.

The next data set deals with albumin. The settings on record: cited from earlier work.
In the next data set the test system is ciliated cells. The settings on record: cited from earlier work.
The test system of a further data set is B. pertussis. The following applies: in vivo; cited from earlier work.
The test system of a further data set is blood-brain barrier. The data set can be described thus: Rat meningitis model (LOS): blood-brain barrier permeability. It is filed as in vivo. The settings on record: rat, in vivo. Here is the method: as §3, §4
Data set [4] is described as follows: Peripheral white blood cells in rats. The settings on record: rat, in vivo. Here is the method: as §4
Data set [5] in a line: Stability in 50% rabbit plasma. The data set is classed as in vitro ADME. The settings on record: 37° C.
Experimental: To determine the stability of the FHA II peptide, the unmodified or the acetylated-amidated peptide were incubated in 50% rabbit plasma at 37° C.

T1 sequence (P05107 23-769, other chains not shown): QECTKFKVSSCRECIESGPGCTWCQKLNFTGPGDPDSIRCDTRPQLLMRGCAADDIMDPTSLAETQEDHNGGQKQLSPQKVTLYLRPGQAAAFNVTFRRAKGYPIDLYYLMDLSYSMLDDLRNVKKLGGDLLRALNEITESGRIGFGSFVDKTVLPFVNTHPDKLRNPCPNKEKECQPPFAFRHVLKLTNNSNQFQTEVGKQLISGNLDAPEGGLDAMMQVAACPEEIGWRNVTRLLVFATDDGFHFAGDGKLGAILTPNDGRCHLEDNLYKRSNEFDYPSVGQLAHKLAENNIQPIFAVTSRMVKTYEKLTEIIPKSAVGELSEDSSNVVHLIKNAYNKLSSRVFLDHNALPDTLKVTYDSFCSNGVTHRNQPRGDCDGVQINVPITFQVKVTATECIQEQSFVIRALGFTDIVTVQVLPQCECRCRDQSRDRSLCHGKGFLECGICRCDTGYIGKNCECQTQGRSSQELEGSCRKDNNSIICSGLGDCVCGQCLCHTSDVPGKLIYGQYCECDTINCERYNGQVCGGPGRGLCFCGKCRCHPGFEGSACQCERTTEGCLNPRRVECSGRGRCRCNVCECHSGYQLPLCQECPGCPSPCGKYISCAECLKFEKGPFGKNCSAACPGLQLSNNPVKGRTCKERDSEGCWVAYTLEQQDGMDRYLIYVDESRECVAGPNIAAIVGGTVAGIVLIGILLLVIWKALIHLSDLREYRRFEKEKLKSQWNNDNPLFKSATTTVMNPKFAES

Regarding AADPHQGVLAQGDIIMDAKG [FHA Cc], the “neutrophil adherence blocking activity (in words)” value in [1] (0.5 mM) is “activity was detectable above background but was not statistically different from buffer alone”. Besides, the “effect on CD11b/CD18 (in words)” value with CD11b/CD18 is listed as “no significant effect”. Moreover, the “Total protein in CSF” value in the data set on blood brain barrier (6 hours) came out at 1.36 ± 0.16 mg/mL; with blood brain barrier (7 hours), 1.90 ± 0.22 mg/mL.
Regarding “Ac-VEEDTKG-NH2 [scrambled ac/am FHA II, VEEDTKG, reference compound]”, the “Leukocytosis (CSF leukocyte concentration)” value (“Leukocytosis” below) in the data set with leukocytes in CSF [2] (600 nmol i.v.) is on record as 14,287 ± 10,199 cells/ml.
As to RADPHQGVLAQGDIIMDAKG [FHA Cb], the “neutrophil adherence blocking activity (in words)” value in data set [1] (0.5 mM) was “activity was decreased by half”. The “effect on CD11b/CD18 (in words)” value with CD11b/CD18 was “no significant effect”. In addition, the “Total protein in CSF” value with blood brain barrier (6 hours) is 1.91 ± 0.24 mg/mL; with blood brain barrier (7 hours) it was 2.28 ± 0.28 mg/mL. Further, the “% Inhibition of TEM” value in the data set with neutrophils is on record as 8 ± 9%. The “leukocyte migration into CSF (in words)” value in the data set on leukocytes in CSF [3] (0.1 μM peptide i.v.) is recorded as “ineffective”. In the data set on leukocytes in CSF [3] (7 hours, 1 ml of 1 uM peptide i.v.), the “leukocyte density in CSF” value is given as 2788±1022 cells/μl CSF.
For `CC1(C)S[C@@H]2[C@H](NC(=O)Cc3ccccc3)C(=O)N2[C@H]1C(=O)O` [penicillin], the bound to albumin with albumin was roughly 80%.
In the case of lactosamines, the “inhibition of adherence of B. pertussis to human ciliated cells” value with ciliated cells is recorded as “Inhibition of adherence”.
Turning to `OC[C@H]1O[C@@H](O[C@H]2[C@H](O)[C@@H](O)C(O)O[C@@H]2CO)[C@H](O)[C@@H](O)[C@H]1O` (stereo partly drawn) [Lactose], the “colonization of rabbit lung” value in the data set on B. pertussis is on record as “decrease colonization of rabbit lung”.
In the case of Ac-ETKEVDG-NH2 [Acetyl/Amide-FHA II], the “inhibition of blood-brain barrier permeability (in words)” value in the data set on blood-brain barrier is “not observed”. Moreover, the “interference with neutrophil adherence (in words)” value in [1] (peptides 0.5 mM) was “significantly enhanced the ability of peptide FHA II to block neutrophil adherence to endothelia”. Further, the “Leukocytosis” value in the data set on leukocytes in CSF [2] (600 nmol i.v.) is reported as “approximately 10,000 cells/ml”; in the data set on leukocytes in CSF [2] (600 nmol i.v., listed as ac/am FHA II), 10,500 ± 8523 cells/ml. The neutropenia result in data set [4] is listed as “No neutropenia”. The “protein influx into CSF and lactate generation (in words)” value in the data set with blood brain barrier (10 μM peptides, 0.1 μM FHA) was “significantly reduced protein influx into the CSF and generation of lactate”. Besides, the “concentration over time (in words)” value in [5] is listed as “remained unchanged over 48 hours”. Further, the “leukocytes in CSF” value in the data set on leukocytes in CSF [3] (6 hours, 10 nmoles i.v.) is listed as 3011±684 cells/μl.
Consider “IDVPQHGGAMRDLGIAQGKD [scrambled FHA Ca, reference compound]”, for which the “Leukocytosis” value in the data set on leukocytes in CSF [2] (100 nmol i.v.) is 20,700 ± 7,400 cells/ml.
Consider GTLLLRNDALTENGTVTISA [FHA Cd], for which the “inhibition of neutrophil adherence to endothelial cells” value in data set [1] (0.5 mM) was less than 15%. The “effect on CD11b/CD18 (in words)” value in the data set with CD11b/CD18 is on record as “no significant effect”. The entries for the “Total protein in CSF” value in the data set on blood brain barrier (6 hours) and with blood brain barrier (7 hours) were 1.71 ± 0.19 mg/mL and 2.03 ± 0.57 mg/mL, respectively. Further, the “% Inhibition of TEM” value with neutrophils was determined as 6 ± 6%. Moreover, the “leukocyte recruitment into CSF (in words)” value in the data set with leukocytes in CSF [3] (1 μM peptide i.v.) is on record as “no effect”.
